Measured values: patent US8637523B2, “Compounds for the reduction of beta-amyloid production” (Bristol-Myers Squibb Company, priority 2010, dated 2014)

Each molecule was assayed on Aβ42 (assay: Cellular assay for inhibition of Aβ1-42 production (H4 APP751 SWE clone 8.20)). Conditions: 19 h, H4 APP751 SWE clone 8.20 cells, 19 h incubation; read-out: Activity Rating (Aβ42 cellular IC50), class symbol.
Format: cell-based
Method: Cellular Assays for Inhibition of Aβ1-40 and Aβ1-42 Production
H4 cells stably transfected with APP751 containing the Swedish mutation (H4 APP751 SWE clone 8.20, developed at BMS) were maintained in log phase through twice weekly passage at a 1:20 split. […] Following incubation for 19 h in 5% CO2 at 37° C., plates were briefly centrifuged (1000 rpm, 5 min). A 10 μl aliquot from each well was transferred to a second assay plate (Costar 3709) for Aβ40 measurements. Antibody cocktails were freshly prepared by dilution into 40 mM Tris-HCl (pH 7.4) with 0.2% BSA and added to assay plates. For Aβ42 measurements, antibodies specific for the Aβ42 neoepitope (565, developed at BMS; conjugated to the Wallac reagent (Perkin Elmer)) and the N-terminal sequence of Aβ peptide (26D6, developed at SIBIA; conjugated to APC (Perkin Elmer)) were mixed and 20 μl of the mixture was added to each well of the incubated cell plate yielding a final concentration of 0.8 ng/well 565 and 75 ng/well 26D6. For the Aβ40 measurements, antibodies specific for the Aβ40 neoepitope (TSD, developed at BMS; conjugated to the Wallac reagent (Perkin Elmer)) and 26D6 as described above were mixed and 20 μl of the mixture was added to the 10 μl aliquots which had been removed previously from the cell plate yielding a final concentration of 1.6 ng/well TSD and 17.5 ng/well 26D6. Assay plates containing antibodies were sealed with aluminum foil and incubated overnight at 4° C. Signal was determined using a Viewlux counter (Perkin Elmer) and IC50 values determined using curve fitting in CurveMaster (Excel Fit based).

Row | Molecule | IC50
1 | Cc1ncn(-c2ccc3cc2OCCCCNc2nc(nc4c2CN(C)CC4c2ccc(F)cc2)N3)n1 (racemic) [Example 70B, 19-(4-fluorophenyl)-17-methyl-7-(3-methyl-1H-1,2,4-triazol-1-yl)-11,12,13,14,16,17,18,19-octahydro-10H-15,2-(azeno)-8,4-(metheno)pyrido[3,4-h][1,6,10,12]oxatriazacycloheptadecine] | < 10 nM
2 | Clc1cn(-c2ccc3cc2OCCCCNc2nc(nc4c2CCC4c2ccccc2)N3)cn1 (stereo not drawn) [Example 12A, 7-(4-chloro-1H-imidazol-1-yl)-18-phenyl-10,11,12,13,14,16,17,18-octahydro-15,2-(azeno)-8,4-(metheno)cyclopenta[h][1,6,10,12]oxatriazacycloheptadecine] | < 10 nM
3 | Cc1ncn(-c2ccc3cc2OCCCN(C)c2nc(nc4c2CCC4c2ccc(F)cc2)N3)n1 (stereo not drawn) [Example 65B, 13-methyl-7-(3-methyl-1H-1,2,4-triazol-1-yl)-17-(4-fluorophenyl)-11,12,13,15,16,17-hexahydro-10H-14,2-(azeno)-8,4-(metheno)cyclopenta[g][1,5,9,11]oxatriazacyclohexadecine] | 10 to 100 nM
4 | N#Cc1ccc2cc1OCCCCCc1nc(nc3c1CCC3c1ccccc1)N2 (stereo not drawn) [Example 38B, 7-cyano-18-phenyl-10,11,12,13,14,16,17,18-octahydro-15,2-(azeno)-8,4-(metheno)cyclopenta[h][1,10,12]oxadiazacycloheptadecine] | 100 to 1000 nM
5 | CN1CCCCOc2cc(ccc2-n2cnc(Cl)c2)Nc2nc3c(c1n2)CCC3c1ccc(F)cc1F (stereo not drawn) [Example 19A, 7-(4-chloro-1H-imidazol-1-yl)-18-(2,4-difluorophenyl)-14-methyl-10,11,12,13,14,16,17,18-octahydro-15,2-(azeno)-8,4-(metheno)cyclopenta[h][1,6,10,12]oxatriazacycloheptadecine] | < 10 nM
6 | CN1CCCOc2cc(ccc2C#N)Nc2nc3c(c1n2)CCC3c1ccccc1 (stereo not drawn) [Example 31A, 7-cyano-β-methyl-17-phenyl-11,12,13,15,16,17-hexahydro-10H-14,2-(azeno)-8,4-(metheno)cyclopenta[g][1,5,9,11]oxatriazacyclohexadecine] | 10 to 100 nM
7 | Clc1cn(-c2ccc3cc2OCCCCCNc2nc(nc4c2CCC4c2ccccc2)N3)cn1 (stereo not drawn) [Example 11B, 7-(4-chloro-1H-imidazol-1-yl)-19-phenyl-3,10,11,12,13,14,15,17,18,19-decahydro-2,16-(azeno)-8,4-(metheno)cyclopenta[f][1,7,9,13]oxatriazacyclooctadecine] | 10 to 100 nM
8 | CN1Cc2c3nc(nc2C(c2ccc(F)cc2)C1)Nc1ccc(C#N)c(c1)OCCCCN3 (racemic) [Example 71, 7-cyano-19-(4-fluorophenyl)-17-methyl-11, 12, 13,14,16,17,18,19-octahydro-10H-15,2-(azeno)-8,4-(metheno)pyrido[3,4-h][1,6,10,12]oxatriazacycloheptadecine] | 10 to 100 nM

Other lines, results leading:

Row | IC50 | Molecule
9 | 10 to 100 nM | Cc1ncn(-c2ccc3cc2OCCCCNc2nc(nc4c2CCC4c2ccccc2)N3)n1 (stereo not drawn) [Example 49B, 7-(3-methyl-1H-1,2,4-triazol-1-yl)-18-phenyl-10,11,12,13,14,16,17,18-octahydro-15,2-(azeno)-8,4-(metheno)cyclopenta[h][1,6,10,12]oxatriazacycloheptadecine]
10 | 10 to 100 nM | Cc1ncn(-c2ccc3cc2OCCCCN(C)c2nc(nc4c2CCC4c2ccccc2)N3)n1 (stereo not drawn) [Example 50B, 14-methyl-7-(3-methyl-1H-1,2,4-triazol-1-yl)-18-phenyl-10,11,12,13,14,16,17,18-octahydro-15,2-(azeno)-8,4-(metheno)cyclopenta[h][1,6,10,12]oxatriazacycloheptadecine]
11 | < 10 nM | Cc1ncn(-c2ccc3cc2OCC(O)CCNc2nc(nc4c2CCC4c2ccc(F)cc2)N3)n1 (single isomer, unassigned) [Example 72B, 18-(4-fluorophenyl)-7-(3-methyl-1H-1,2,4-triazol-1-yl)-10,11,12,13,14,16,17,18-octahydro-15,2-(azeno)-8,4-(metheno)cyclopenta[h][1,6,10,12]oxatriazacycloheptadecin-11(3H)-ol]

Same assay, conditions: 19 h, H4 APP751 SWE clone 8.20 cells, 19 h incubation; unit inferred; read-out: Activity Rating (Aβ42 cellular IC50), numeric value

Row | IC50 | Molecule
12 | 5.3 nM | Cc1ncn(-c2ccc3cc2OCCCCNc2nc(nc4c2CCC4c2ccc(F)cc2F)N3)n1 (stereo not drawn) [Example 64A, 18-(2,4-difluorophenyl)-7-(3-methyl-1H-1,2,4-triazol-1-yl)-10,11,12,13,14,16,17,18-octahydro-15,2-(azeno)-8,4-(metheno)cyclopenta[h][1,6,10,12]oxatriazacycloheptadecine]
13 | 17 nM | Clc1cn(-c2ccc3cc2OCCCNc2nc(nc4c2CCC4c2ccccc2)N3)cn1 (stereo not drawn) [Example 9B, 7-(4-chloro-1H-imidazol-1-yl)-17-phenyl-11,12,13,15,16,17-hexahydro-10H-14,2-(azeno)-8,4-(metheno)cyclopenta[g][1,5,9,11]oxatriazacyclohexadecine]

Same assay, conditions: H4 APP751 SWE clone 8.20 cells, 19 h incubation; read-out: Activity Rating (Aβ42 cellular IC50), class symbol

Row | Molecule | IC50
14 | N#Cc1ccc2cc1OCCNCCNc1nc(nc3c1CCC3c1ccc(F)cc1)N2 (single isomer, unassigned) [Example 26B, 7-cyano-19-(4-fluorophenyl)-11,12,13,14,15,17,18,19-octahydro-10H-16,2-(azeno)-8,4-(metheno)cyclopenta[i][1,4,7,11,13]oxatetraazacyclooctadecine] | 100 to 1000 nM
15 | CN1CCNc2nc(nc3c2CCC3c2ccc(F)cc2)Nc2ccc(C#N)c(c2)OCC1 (single isomer, unassigned) [Example 27A, 7-cyano-19-(4-fluorophenyl)-12-methyl-11,12,13,14,15,17,18,19-octahydro-10H-16,2-(azeno)-8,4-(metheno)cyclopenta[i][1,4,7,11,13]oxatetraazacyclooctadecine] | 10 to 100 nM
16 | CN1CCNc2nc(nc3c2CCC3c2ccc(F)cc2)Nc2ccc(C#N)c(c2)OCC1 (single isomer, unassigned) [Example 27B, 7-cyano-19-(4-fluorophenyl)-12-methyl-11,12,13,14,15,17,18,19-octahydro-10H-16,2-(azeno)-8,4-(metheno)cyclopenta[i][1,4,7,11,13]oxatetraazacyclooctadecine] | 100 to 1000 nM
17 | (11E)-7-cyano-18-(2,4-difluorophenyl)-10,13,14,16,17,18-hexahydro-15,2-(azeno)-8,4-(metheno)cyclopenta[h][1,6,10,12]oxatriazacycloheptadecine [Example 25A] | 10 to 100 nM

The next lines start with the values.

Row | IC50 | Molecule
18 | 100 to 1000 nM | CN1CCCCOc2cc(ccc2C#N)Nc2nc3c(c1n2)CCC3c1ccc(F)cc1F (single isomer, unassigned) [Example 32B, 7-cyano-18-(2,4-difluorophenyl)-14-methyl-10,11,12,13,14,16,17,18-octahydro-15,2-(azeno)-8,4-(metheno)cyclopenta[h][1,6,10,12]oxatriazacycloheptadecine]
19 | 10 to 100 nM | Clc1cn(-c2ccc3cc2OC/C=C\CCc2nc(nc4c2CCC4c2ccccc2)N3)cn1 (single isomer, unassigned) [Example 16B, (11Z)-7-(4-chloro-1H-imidazol-1-yl)-18-phenyl-10,13,14,16,17,18-hexahydro-15,2-(azeno)-8,4-(metheno)cyclopenta[h][1,10,12]oxadiazacycloheptadecine]

Same assay, conditions: H4 APP751 SWE clone 8.20 cells, 19 h incubation; unit inferred; read-out: Activity Rating (Aβ42 cellular IC50), numeric value

Row | Molecule | IC50
20 | (11Z)-18-(2,4-difluorophenyl)-7-(5-methyl-1H-1,2,4-triazol-1-yl)-10,13,14,16,17,18-hexahydro-15,2-(azeno)-8,4-(metheno)cyclopenta[h][1,6,10,12]oxatriazacycloheptadecine [Example 53B] | 17 nM
21 | CN1CCCCOc2cc(ccc2C#N)Nc2nc3c(c1n2)CCC3c1ccccc1 (single isomer, unassigned) [Example 34B, 7-cyano-14-methyl-18-phenyl-10,11,12,13,14,16,17,18-octahydro-15,2-(azeno)-8,4-(metheno)cyclopenta[h][1,6,10,12]oxatriazacycloheptadecine] | 160 nM
22 | Cc1ncn(-c2ccc3cc2OC/C=C/CNc2nc(nc4c2CCC4c2ccc(F)cc2F)N3)n1 (stereo not drawn) [Example 52A, (11E)-18-(2,4-difluorophenyl)-7-(3-methyl-1H-1,2,4-triazol-1-yl)-10,13,14,16,17,18-hexahydro-15,2-(azeno)-8,4-(metheno)cyclopenta[h][1,6,10,12]oxatriazacycloheptadecine] | 11 nM

The next lines start with the values.

Row | IC50 | Molecule
23 | 43 nM | N#Cc1ccc2cc1OCC=CCNc1nc(nc3c1CCC3c1ccc(F)cc1F)N2 (stereo not drawn) [Example 24B, (11Z)-7-cyano-18-(2,4-difluorophenyl)-10,13,14,16,17,18-hexahydro-15,2-(azeno)-8,4-(metheno)cyclopenta[h][1,6,10,12]oxatriazacycloheptadecine]
24 | 32 nM | Cc1ncn(-c2ccc3cc2OCC=CCCc2nc(nc4c2CCC4c2ccccc2)N3)n1 (stereo not drawn) [Example 59B, (11E)-7-(3-methyl-1H-1,2,4-triazol-1-yl)-18-phenyl-10,13,14,16,17,18-hexahydro-15,2-(azeno)-8,4-(metheno)cyclopenta[h][1,10,12]oxadiazacycloheptadecine]
